The test system of assay [1] is HSV-1 strain F or KOS. Kind of assay: Inhibition of herpes simplex virus (HSV-1) replication in cell culture (BHK-21 cells, glycoprotein C ELISA). Format: cell-based. As to the method: B) Inhibition of Herpes Simplex Virus (HSV-1) Replication in Cell Culture
BHK-21 cells clone 13 (ATCC CCL10) were incubated for two days in 850 cm^2 roller bottles (2×10^7 cells/bottle) with A-MEM medium (Gibco Canada Inc., Burlington, Ontario, Canada) supplemented with 8% (v/v) fetal bovine serum (FBS, Gibco Canada, Inc.). The cells were trypsinized and then 3,000 cells in 100 μL of fresh medium were transferred into each well of a 96-well microtiter plate. The cells were incubated at […] for a period of 3 days to reach a density of 50,000 cells per well. The cells were washed twice with 100 μL of α-MEM supplemented with 2% heat inactivated FBS and incubated for 1-2 hours in 100 μL of the same medium.
Thereafter, the cells were infected with HSV-1 strain F or KOS (multiplicity of infection =0.05 PFU/cell) in 50 μL of α-MEM supplemented with 2% heat inactivated FBS. Following one hour of virus absorption at 37°, the medium was removed and the cells were washed with α-MEM supplemented with 2% heat inactivated FBS (2×100 μL). The cells were incubated with or without 100 μL of the appropriate concentration of test reagent in α-MEM medium supplemented with 2% heat inactivated FBS. After 24 hours of incubation at 37°, the extent of viral replication was determined by an ELISA assay; for instance, the following assay that detects the late glycoprotein C of HSV-1.
Cells were fixed in the microtiter plate with 100 μL of 0.063% glutaraldehyde in phosphate buffered saline for 30 min at room temperature. The microtiter plate was then washed once with casein blocking solution and blocked with 200 μL of the same solution for one hour at room temperature. Thereafter, 100 μL of mAb C11 recognizing the glycoprotein C of HSV-1 (see E. Trybala et al., Journal of General Virology, 1994, 75, 743) was added to each well for two hours at room temperature. The plate was washed three times with phosphate buffered saline containing 0.05% polyoxyethylene (20) sorbitan monooleate. The cells were incubated with 100 μL of sheep anti-mouse IgG horseradish peroxidase for one hour at room temperature in the dark.
The plate was washed three times with 200 μL of the above-noted phosphate buffer saline preparation, and then once with 0.1 M sodium citrate (pH 4.5). Thereafter, 100 μL of orthophenylenediamine dihydrochloride (OPD, Gibco, Canada Inc.) was added to each well. The plate was agitated on a microplate shaker for 30 min in the dark. Color development was monitored at 450 nm using a microplate spectrophotometer.
SAS was used to calculate % inhibition of viral replication and to generate EC50 values.

Assay [2] addresses T1, HSV-1 helicase-primase (Human herpesvirus 1, UniProt P10189+P10236).
T1 construct: made in house; host or cells: Sf21 insect cells triply infected with recombinant baculoviruses (UL5, UL8, UL52)
Kind of assay: HSV-1 DNA-dependent ATPase assay (inhibition of HSV-1 helicase-primase). Format: biochemical. The text has this:
A) HSV-1 DNA-Dependent ATP Assay (an in Vitro Assay Based on the Inhibition of HSV-1 Helicase-primase).
HSV-1 helicase-primase holoenzyme was produced in triply infected Sf21 cells using recombinant baculoviruses expressing the UL5, UL8 and UL52 helicase-primase subunits, as described by S. Dracheva et al., J. Biol. Chem. 1995, 270, 14148. The crude enzyme was purified by ammonium sulfate precipitation, Source 15Q® chromatography and Sephacryl® S-300 HR gel filtration (both purification systems can be obtained from Pharmacia Biotech Inc., Montreal, Quebec, Canada), see S. Dracheva et al., supra.
The DNA-dependent ATPase assay, described by J. J. Crute et al., Nucleic Acids Res. 1988, 16, 6585, was modified and used to evaluate the capability of the compounds of Group 1-formula 1 to inhibit HSV-1 helicase-primase activity. The reaction mixtures (80 μL each) contained 40 mM 4-(2-hydroxyethyl)-1-piperazineethanesulfonic acid (HEPES, pH 7.5), 10% (v/v) glycerol, 5.5 mM MgCl2, 1 mM DL-dithiothreitol (DTT), 50 μg/mL acetylated bovine serum albumin, 3.3% (v/v) DMSO, 4 mM ATP, 25 μM single-stranded M13 DNA hybridized to double-tailed 68-mer oligonucleotide and 3 μg/mL HSV-1 helicase-primase. After incubation for 20 min at 34°, formation of inorganic phosphate from hydrolysis of ATP was monitored spectrophotometrically at 650 nm using acidic ammonium molybdate/malachite green reagent, P. A. Lanzetta et al., Anal. Biochem. 1979, 100, 95. DNA-dependent ATPase activity was calculated from the net absorbance change in the presence and absence of inhibition.

[3] abbreviates: Human alphaherpesvirus 1, BHK-21, Group 1 Table 1 entries.

The structures appear in SMILES notation.

T1 sequence (P10192 whole entry): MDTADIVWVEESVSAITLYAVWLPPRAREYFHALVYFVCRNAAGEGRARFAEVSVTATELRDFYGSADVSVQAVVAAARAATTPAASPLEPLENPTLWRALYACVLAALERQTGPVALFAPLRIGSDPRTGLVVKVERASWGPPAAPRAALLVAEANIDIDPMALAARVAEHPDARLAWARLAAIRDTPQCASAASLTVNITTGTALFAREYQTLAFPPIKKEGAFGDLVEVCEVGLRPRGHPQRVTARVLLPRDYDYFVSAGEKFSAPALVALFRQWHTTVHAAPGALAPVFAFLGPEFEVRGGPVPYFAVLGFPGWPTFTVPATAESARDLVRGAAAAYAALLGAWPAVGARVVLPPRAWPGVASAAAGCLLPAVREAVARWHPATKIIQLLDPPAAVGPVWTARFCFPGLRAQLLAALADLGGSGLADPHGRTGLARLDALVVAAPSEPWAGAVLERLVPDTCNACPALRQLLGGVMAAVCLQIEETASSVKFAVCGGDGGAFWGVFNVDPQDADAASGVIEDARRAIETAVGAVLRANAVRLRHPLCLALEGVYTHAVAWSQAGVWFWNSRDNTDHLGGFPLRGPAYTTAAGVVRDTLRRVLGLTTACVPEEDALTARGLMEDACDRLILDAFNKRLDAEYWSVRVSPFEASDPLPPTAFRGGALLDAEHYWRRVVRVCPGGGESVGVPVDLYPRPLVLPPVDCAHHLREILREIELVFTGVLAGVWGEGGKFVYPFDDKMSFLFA
T1 sequence (P10236 whole entry): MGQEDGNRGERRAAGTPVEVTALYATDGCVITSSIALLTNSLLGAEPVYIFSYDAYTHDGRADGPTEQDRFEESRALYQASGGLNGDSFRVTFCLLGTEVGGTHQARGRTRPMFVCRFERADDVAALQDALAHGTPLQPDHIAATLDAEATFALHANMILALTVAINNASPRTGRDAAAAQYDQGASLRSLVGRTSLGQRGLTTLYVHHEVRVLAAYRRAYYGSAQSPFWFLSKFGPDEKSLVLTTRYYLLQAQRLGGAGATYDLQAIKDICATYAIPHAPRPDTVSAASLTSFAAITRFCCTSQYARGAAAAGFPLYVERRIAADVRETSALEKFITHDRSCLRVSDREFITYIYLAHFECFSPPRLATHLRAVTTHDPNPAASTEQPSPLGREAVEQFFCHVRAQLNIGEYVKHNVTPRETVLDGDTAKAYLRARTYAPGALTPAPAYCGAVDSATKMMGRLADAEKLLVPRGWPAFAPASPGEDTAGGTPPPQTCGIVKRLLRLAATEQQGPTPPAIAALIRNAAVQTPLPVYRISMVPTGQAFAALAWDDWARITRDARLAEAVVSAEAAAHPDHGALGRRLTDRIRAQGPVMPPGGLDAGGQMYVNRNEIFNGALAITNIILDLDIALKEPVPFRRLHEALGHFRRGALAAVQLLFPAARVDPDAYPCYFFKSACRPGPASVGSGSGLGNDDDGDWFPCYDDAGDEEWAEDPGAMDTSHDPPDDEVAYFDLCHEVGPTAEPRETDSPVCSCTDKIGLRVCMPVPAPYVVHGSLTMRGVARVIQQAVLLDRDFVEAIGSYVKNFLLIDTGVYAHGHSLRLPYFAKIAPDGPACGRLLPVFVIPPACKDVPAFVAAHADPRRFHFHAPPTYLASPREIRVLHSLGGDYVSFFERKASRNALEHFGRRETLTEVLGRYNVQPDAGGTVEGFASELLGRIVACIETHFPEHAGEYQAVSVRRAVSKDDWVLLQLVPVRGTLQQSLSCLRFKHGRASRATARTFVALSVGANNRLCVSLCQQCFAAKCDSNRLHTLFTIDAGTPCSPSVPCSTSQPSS
T1 sequence (P10189 whole entry): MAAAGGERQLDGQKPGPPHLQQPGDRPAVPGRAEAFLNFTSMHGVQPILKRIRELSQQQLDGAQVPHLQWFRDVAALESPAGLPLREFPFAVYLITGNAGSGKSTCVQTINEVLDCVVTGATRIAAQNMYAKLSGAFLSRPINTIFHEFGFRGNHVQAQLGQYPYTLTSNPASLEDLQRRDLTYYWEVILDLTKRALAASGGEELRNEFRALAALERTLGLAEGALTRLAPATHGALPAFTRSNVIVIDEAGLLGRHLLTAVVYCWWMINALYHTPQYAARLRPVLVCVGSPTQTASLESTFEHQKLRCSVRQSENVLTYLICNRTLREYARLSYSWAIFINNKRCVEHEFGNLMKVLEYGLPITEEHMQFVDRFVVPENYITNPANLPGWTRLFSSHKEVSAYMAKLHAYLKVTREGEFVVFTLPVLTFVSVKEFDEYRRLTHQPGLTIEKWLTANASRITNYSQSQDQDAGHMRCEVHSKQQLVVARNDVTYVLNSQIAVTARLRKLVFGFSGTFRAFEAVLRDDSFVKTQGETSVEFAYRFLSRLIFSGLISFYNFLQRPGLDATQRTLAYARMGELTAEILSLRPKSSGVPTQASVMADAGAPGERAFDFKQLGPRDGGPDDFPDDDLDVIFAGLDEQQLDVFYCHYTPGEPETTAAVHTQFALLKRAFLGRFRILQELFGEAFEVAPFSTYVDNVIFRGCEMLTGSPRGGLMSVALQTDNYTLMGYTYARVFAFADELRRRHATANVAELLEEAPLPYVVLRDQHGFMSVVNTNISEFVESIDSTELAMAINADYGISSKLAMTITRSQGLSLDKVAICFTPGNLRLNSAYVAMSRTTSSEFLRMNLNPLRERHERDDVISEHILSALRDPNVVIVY

As to `Nc1nc(-c2ccc(NC(=O)CNCc3ccc(Cl)cc3)cc2)cs1` [Example 5], in assay [1] (setting [3]), a half-maximal response (EC50) required 42000 nM. In assay [2] (Group 1 Table 1 entries), this compound yielded an IC50 of 5400 nM. In assay [1] (setting [3]), `Cc1ccc(CNCC(=O)Nc2ccc(-c3csc(N)n3)cc2)cc1` [Example 6] showed an EC50 of 18000 nM. In assay [2] (Group 1 Table 1 entries), this compound returned an IC50 of 19000 nM. Consider `CNc1nc(-c2ccc(NC(=O)CNCc3ccccc3)cc2)cs1` [Example 7], for which the EC50 in assay [1] (Human alphaherpesvirus 1, BHK-21, Group 1 Table 3 entries) was 4100 nM. With `COc1ccc(CNCC(=O)Nc2ccc(-c3csc(N)n3)cc2)cc1` [Example 7], the EC50 in assay [1] (setting [3]) came to 7000 nM. 48000 nM corresponded to half-maximal inhibition in assay [2] (Group 1 Table 1 entries) (IC50). In the case of `Nc1nc(-c2ccc(NC(=O)CNCc3cccc(F)c3)cc2)cs1` [Example 9], the IC50 in assay [2] (Group 1 Table 1 entries) was ~5000 nM. The compound `Nc1nc(-c2ccc(NC(=O)CN(Cc3ccccc3F)Cc3ccccc3F)cc2)cs1` [Example 17] displayed an EC50 in assay [1] (setting [3]) of 4000 nM. The same compound came in with an IC50 in assay [2] (Group 1 Table 1 entries) of 1800 nM. In the same order, the values of `Nc1nc(-c2ccc(NC(=O)CN(Cc3cccc(F)c3)Cc3cccc(F)c3)cc2)cs1` [Example 18] are 100 nM and 400 nM.

On to `Nc1nc(-c2ccc(NC(=O)[C@H](Cc3ccccc3)NC(=O)OCc3ccccc3)cc2)cs1` [Example 23], for which the EC50 in assay [1] (Human alphaherpesvirus 1, BHK-21, Group 1 Table 5 entries) is 94 nM. For the same compound, it took 600 nM to reach half-maximal inhibition in assay [2] (Group 1 Table 5 entries) (IC50). Turning to `Nc1nc(-c2ccc(NC(=O)CN(Cc3ccc(Cl)cc3)C(=O)c3ccncc3)cc2)cs1` [Example 55], the EC50 in assay [1] (setting [3]) was determined as 95 nM. `Nc1nc(-c2ccc(NC(=O)CN(CC3CCCCC3)C(=O)c3ccncc3)cc2)cs1` [Example 57]: the EC50 in assay [1] (setting [3]) was determined as 950 nM. Against the preceding compound, the EC50 is about 10-fold higher. `Nc1nc(-c2ccc(NC(=O)CN(Cc3ccc(F)cc3)C(=O)c3ccccc3)cc2)cs1` [Example 59] showed an EC50 in assay [1] (setting [3]) of 15 nM. In assay [2] (Group 1 Table 1 entries), this compound displayed an IC50 of 300 nM. As for `CC(C)(C)OC(=O)N1CCC(C(=O)N(CC(=O)Nc2ccc(-c3csc(N)n3)cc2)CC2CCCCC2)CC1` [Example 61], the EC50 in assay [1] (setting [3]) worked out at 1600 nM. The compound `[N-]=[N+]=Nc1ccc(C(=O)N(CC(=O)Nc2ccc(-c3csc(N)n3)cc2)Cc2ccc(Cl)cc2)cc1` [Example 65] gave an IC50 in assay [2] (Group 1 Table 1 entries) of 840 nM.

With `Nc1nc(-c2ccc(NC(=O)CN(CCc3ccccc3)C(=O)C3CCCCC3)cc2)cs1` [Example 68], the EC50 in assay [1] (setting [3]) was determined as 50 nM. `Nc1nc(-c2ccc(NC(=O)CN(Cc3ccc(Cl)cc3)C(=O)CC3CCCCC3)cc2)cs1` [Example 69] displayed an EC50 in assay [1] (setting [3]) of 180 nM. On the same count and under the same terms, next, `Nc1nc(-c2ccc(NC(=O)CN(CC3CCCCC3)C(=O)CC3CCCC3)cc2)cs1` [Example 75]: 240 nM; `[N-]=[N+]=Nc1ccc(C(=O)N(CC(=O)Nc2ccc(-c3csc(N)n3)cc2)Cc2ccncc2)cc1` [Example 78]: 180 nM; `CC(C)CN(CC(=O)Nc1ccc(-c2csc(N)n2)cc1)C(=O)C1CCCCC1` [Example 81]: 180 nM.

`Nc1nc(-c2ccc(NC(=O)CN(Cc3ccc(F)cc3)C(=O)C3CCCCC3)cc2)cs1` [Example 83]: the EC50 in assay [1] (setting [3]) was 6 nM. On the same count and under the same terms, under `CC(C)COC(=O)N(CC(=O)Nc1ccc(-c2csc(N)n2)cc1)Cc1ccccc1` [Example 86] stands 88 nM. Same read-out and setting: next, `CC(C)(C)NC(=O)N(CC(=O)Nc1ccc(-c2csc(N)n2)cc1)Cc1ccccc1` [Example 92]: 34 nM.

`CN(C(=O)N(CC(=O)Nc1ccc(-c2csc(N)n2)cc1)Cc1ccccc1)C(C)(C)C` [Example 94] returned an EC50 in assay [1] (setting [3]) of 65 nM. In assay [1] (setting [3]), `Nc1nc(-c2ccc(NC(=O)CN(Cc3ccccc3)C(=O)N3CCOCC3)cc2)cs1` [Example 95] gave an EC50 of 37 nM. Still for that read-out and setting: next, `Nc1nc(-c2ccc(NC(=O)CN(Cc3ccccc3)S(=O)(=O)N3CCOCC3)cc2)cs1` [Example 96]: 120 nM.

Compound `CC(C)(C)OC(=O)N(CC(=O)Nc1ccc(-c2csc(N)n2)cc1)CC1CCCCC1` [Example 100] showed a 50% effective concentration (EC50) in assay [1] (setting [3]) of 850 nM. Compound `Cc1ccccc1CN(CC(=O)Nc1ccc(-c2csc(N)n2)cc1)C(=O)c1ccncc1` [Example 102] gave an EC50 in assay [1] (setting [3]) of 11 nM.

Take `C[C@@H](c1ccccc1)N(CC(=O)Nc1ccc(-c2csc(N)n2)cc1)C(=O)NC(C)(C)C` [Example 105]: in assay [1] (setting [3]), the response was half-maximal at 290 nM (EC50).

The term EC50 denotes the midpoint of the concentration-response curve. The low end stands for a more potent agent, the high end for a less potent agent. In general, IC50 refers to the concentration that gives 50% inhibition. The low end stands for greater potency, the high end for weaker potency.

Source of the values: patent US6288091A, “Antiherpes virus compounds and methods for their preparation and use” (Boehringer Ingelheim Ltd., priority 1999, dated 2001).
